# Results published in publication PMC10360057 (2023).
# Columns and labels:
# [1] = test system: RNA 1 (RNA, riboswitch) GGCUGCUUGUCCUUUAAUGGUCCAGUC; experiment: native ESI MS; settings: 9:1 H2O/CH3OH, 0.25 mM piperazine
# [2] = test system: RNA 4 (RNA, riboswitch) CCCUGAUAGCUUGUCCUUUAAUGGUCCUAUCUGGAAAAUG; experiment: competitive native ESI MS; settings: NH4+ 50 mM (ammonium bicarbonate); 9:1 H2O/CH3OH, 0.25 mM piperazine, pH ~7.5, 21 °C; RNA 1 as competing reference; overall, motifs A and B
# [3] = test system: RNA 2 (RNA, riboswitch) CCGGCAUAGCUUGUCCUUUAAUGGUCCUAUGUCGAAAAUG; experiment: ITC; settings: K+ 100 mM (KCl), Mg2+ 2 mM (MgCl2); 50 mM MOPS, pH 7.5, 21 °C; two-site fit, site 1 of 2
# [4] = test system: RNA 2 (RNA, riboswitch) CCGGCAUAGCUUGUCCUUUAAUGGUCCUAUGUCGAAAAUG; experiment: competitive native ESI MS; settings: NH4+ 50 mM (ammonium bicarbonate); 9:1 H2O/CH3OH, 0.25 mM piperazine, pH ~7.5, 21 °C; RNA 1 as competing reference; overall, motifs A and B
# [5] = test system: RNA 3 (RNA, riboswitch) CCGUCAUAGCUUGUCCUUUAAUGGUCCUAUGACGAAAAUG; experiment: competitive native ESI MS; settings: NH4+ 50 mM (ammonium bicarbonate); 9:1 H2O/CH3OH, 0.25 mM piperazine, pH ~7.5, 21 °C; RNA 1 as competing reference; overall, motifs A and B
# [6] = test system: RNA 1 (RNA, riboswitch) GGCUGCUUGUCCUUUAAUGGUCCAGUC; experiment: ITC; settings: K+ 100 mM (KCl), Mg2+ 2 mM (MgCl2); 50 mM MOPS, pH 7.5, 21 °C; two-site fit, site 1 of 2
SMILES,"KD ([1]; none added, pH ~6, room temperature, 1 μM RNA, 10 μM paromomycin)",KD [2],KD [3],KD [4],"KD ([1]; NH4+ 50 mM (ammonium bicarbonate), pH 7.5, 21 °C, single-site model)",KD [5],KD [6]
NC[C@@H]1O[C@H](O[C@H]2[C@@H](O)[C@H](O[C@@H]3[C@@H](O)[C@H](N)C[C@H](N)[C@H]3O[C@H]3O[C@H](CO)[C@@H](O)[C@H](O)[C@H]3N)O[C@@H]2CO)[C@H](N)[C@@H](O)[C@@H]1O,4600 ± 1400 nM,,,,,,
NC[C@@H]1O[C@H](O[C@H]2[C@@H](O)[C@H](O[C@@H]3[C@@H](O)[C@H](N)C[C@H](N)[C@H]3O[C@H]3O[C@H](CN)[C@@H](O)[C@H](O)[C@H]3N)O[C@@H]2CO)[C@H](N)[C@@H](O)[C@@H]1O,,500 ± 200 nM,400 ± 600 nM,500 ± 200 nM,700 ± 200 nM,500 ± 200 nM,2 ± 2 nM
